Laboratory results from PubChem BioAssay (NCI).
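1) Cells in 96-well plates. 2) Compound, 48 h, 5 concentrations. 3) Linear interpolation between surrounding doses. 4) Unreached endpoint = highest concentration. TGI: total growth inhibition.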

Columns and labels:
Experiment in all cases: NCI-60 cell line screen, 48 h
[1] = system: OVCAR-3 ovarian
[2] = system: HT29 colon
[3] = system: NCI-H23 lung
[4] = system: SF-539 CNS
[5] = system: SNB-19 CNS
[6] = system: M19-MEL melanoma
[7] = system: NCI-H522 lung
[8] = system: SK-MEL-2 melanoma
[9] = system: HCC-2998 colon
[10] = system: UACC-62 melanoma
[11] = system: UO-31 renal
[12] = system: SK-OV-3 ovarian
[13] = system: M14 melanoma
[14] = system: RXF-631 renal
[15] = system: COLO 205 colon
[16] = system: NCI-H460 lung
[17] = system: NCI-H226 lung
[18] = system: OVCAR-8 ovarian
[19] = system: CAKI-1 renal
[20] = system: CCRF-CEM leukemia
[21] = system: UACC-257 melanoma
[22] = system: EKVX NSCLC
[23] = system: SR leukemia
[24] = system: K-562 leukemia
[25] = system: SW-620 colon
[26] = system: SK-MEL-5 melanoma
[27] = system: SN12C renal
[28] = system: SK-MEL-28 melanoma
[29] = system: SNB-75 CNS
[30] = system: RPMI-8226 leukemia
[31] = system: 786-0 renal
[32] = system: MALME-3M melanoma
[33] = system: HCT-15 colon
[34] = system: A549 NSCLC
[35] = system: MOLT-4 leukemia
[36] = system: LXFL 529 NSCLC
[37] = system: IGROV1 ovarian
[38] = system: DMS 114 small cell lung
[39] = system: ACHN renal
[40] = system: U251 CNS
[41] = system: XF 498 CNS
[42] = system: HOP-62 NSCLC
[43] = system: SF-268 CNS
[44] = system: OVCAR-4 ovarian
[45] = system: DLD-1 colon
[46] = system: SNB-78 CNS
[47] = system: HCT-116 colon
[48] = system: OVCAR-5 ovarian
[49] = system: SF-295 CNS
[50] = system: KM12 colon
[51] = system: DMS 273 small cell lung
[52] = system: LOX IMVI melanoma
[53] = system: KM20L2 colon
[54] = system: A498 renal
[55] = system: TK-10 renal
[56] = system: HL-60(TB) leukemia

## Cc1nc2c(nc1Cl)nc(Oc1ccc(Cl)cc1)c1ccccc12
[1]
  TGI: > 100 µM
[2]
  TGI: > 100 µM
[3]
  TGI: 85 µM
[4]
  TGI: > 100 µM
[5]
  TGI: > 100 µM
[6]
  TGI: > 100 µM
[7]
  TGI: > 100 µM
[8]
  TGI: > 100 µM
[9]
  TGI: > 100 µM
[10]
  TGI: > 100 µM
[11]
  TGI: 73.7 µM
[12]
  TGI: > 100 µM
[13]
  TGI: > 100 µM
[14]
  TGI: > 100 µM
[15]
  TGI: > 100 µM
[16]
  TGI: > 100 µM
[17]
  TGI: 79.9 µM
[18]
  TGI: 68.2 µM
[19]
  TGI: > 100 µM
[20]
  TGI: > 100 µM
[21]
  TGI: > 100 µM
[22]
  TGI: > 100 µM
[23]
  TGI: > 100 µM
[24]
  TGI: > 100 µM
[25]
  TGI: > 100 µM
[26]
  TGI: > 100 µM
[27]
  TGI: > 100 µM
[28]
  TGI: > 100 µM
[29]
  TGI: > 100 µM
[30]
  TGI: > 100 µM
[31]
  TGI: 38.3 µM
[32]
  TGI: > 100 µM
[33]
  TGI: > 100 µM
[34]
  TGI: > 100 µM
[35]
  TGI: > 100 µM
[36]
  TGI: > 100 µM
[37]
  TGI: > 100 µM
[38]
  TGI: > 100 µM
[39]
  TGI: > 100 µM
[40]
  TGI: 40.6 µM
[41]
  TGI: > 100 µM
[42]
  TGI: 84.1 µM
[43]
  TGI: > 100 µM
[44]
  TGI: > 100 µM
[45]
  TGI: > 100 µM
[46]
  TGI: > 100 µM
[47]
  TGI: > 100 µM
[48]
  TGI: > 100 µM
[49]
  TGI: > 100 µM
[50]
  TGI: > 100 µM
[51]
  TGI: > 100 µM
[52]
  TGI: > 100 µM
[53]
  TGI: > 100 µM

## CN(C(=O)C12C3C4C1C1C2C3C41C(=O)C(C)(C)C)C(C)(C)C (stereo not given)
[1]
  TGI: > 100 µM
[2]
  TGI: > 100 µM
[3]
  TGI: > 100 µM
[4]
  TGI: > 100 µM
[5]
  TGI: > 100 µM
[6]
  TGI: > 100 µM
[7]
  TGI: > 100 µM
[8]
  TGI: > 100 µM
[9]
  TGI: > 100 µM
[10]
  TGI: > 100 µM
[54]
  TGI: > 100 µM
[11]
  TGI: > 100 µM
[12]
  TGI: > 100 µM
[13]
  TGI: > 100 µM
[14]
  TGI: > 100 µM
[15]
  TGI: > 100 µM
[18]
  TGI: > 100 µM
[19]
  TGI: > 100 µM
[20]
  TGI: > 100 µM
[21]
  TGI: > 100 µM
[22]
  TGI: > 100 µM
[24]
  TGI: > 100 µM
[25]
  TGI: > 100 µM
[26]
  TGI: > 100 µM
[27]
  TGI: > 100 µM
[28]
  TGI: > 100 µM
[29]
  TGI: > 100 µM
[30]
  TGI: > 100 µM
[31]
  TGI: > 100 µM
[32]
  TGI: > 100 µM
[55]
  TGI: > 100 µM
[34]
  TGI: > 100 µM
[56]
  TGI: > 100 µM
[35]
  TGI: > 100 µM
[36]
  TGI: > 100 µM
[37]
  TGI: > 100 µM
[38]
  TGI: > 100 µM
[39]
  TGI: > 100 µM
[40]
  TGI: > 100 µM
[41]
  TGI: > 100 µM
[42]
  TGI: > 100 µM
[43]
  TGI: > 100 µM
[44]
  TGI: > 100 µM
[45]
  TGI: > 100 µM
[46]
  TGI: > 100 µM
[47]
  TGI: > 100 µM
[48]
  TGI: > 100 µM
[49]
  TGI: > 100 µM
[50]
  TGI: > 100 µM
[51]
  TGI: > 100 µM
[52]
  TGI: > 100 µM
[53]
  TGI: > 100 µM
